Source: US6203976A, “Methods of preparing compositions comprising chemicals capable of transcriptional modulation” (OSI Pharmaceuticals, Inc., priority 1994, dated 2001)
Where two headings read alike, the source gives them in different places.

Key:
[1] = test system: human G-CSF (G21) promoter; settings: Screen III inhibitors; G21 cells; 6 hours
MMTV (M10) promoter = assay: High-throughput luciferase reporter assay, MMTV promoter (Screen III); assay type: cell-based, mouse; settings: M10 cells, 6 hours; for FOLD INHIBITION RELATIVE TO SOLVENT CONTROL, MMTV: Screen III inhibitors; for FOLD INDUCTION RELATIVE TO SOLVENT CONTROL, MMTV: Screen III activators
Method: pMluci and pSV2Neo, an antibiotic resistance plasmid (112), were co-transfected into NIH/3T3 mouse fibroblast cells using the calcium phosphate precipitation method (103) with a commercially available kit (Pharmacia, Piscataway N.J.). Two days later, cells were transferred to media containing 0.4 mg/ml G418 and were grown for an additional 10-14 days. G418-resistant clones were isolated by standard methods. Once sufficient cell numbers were obtained, clones were analyzed based on several criteria: constitutive luciferase production, induction of luciferase expression by dexamethasone (1 μm, Sigma, St. Louis, Mo.), satisfactory attachment to microtiter plates used in the high-throughput screen and acceptable standard deviation in multiple luciferase expression assays (see below for assay protocol). This analysis was carried out using the luciferase assay conditions described above. Of the clones which satisfied the above criteria for the high throuphput screen, one clone, M10, was selected for use.

[2] = test system: human growth hormone (532) promoter; assay: High-throughput luciferase reporter assay, human Growth Hormone promoter (Screen III); assay type: cell-based; settings: 532 cells, 6 hours; for FOLD INHIBITION RELATIVE TO SOLVENT CONTROL, hGH: Screen III inhibitors; for FOLD INDUCTION RELATIVE TO SOLVENT CONTROL, hGH: Screen III activators
[3] = test system: human G-CSF (G21) promoter; assay: High-throughput luciferase reporter assay, G-CSF promoter (Screen III); settings: G21 cells, 6 hours; for FOLD INDUCTION RELATIVE TO SOLVENT CONTROL, GCSF: Screen III activators; for FOLD INHIBITION RELATIVE TO SOLVENT CONTROL, GCSF: Screen III inhibitors

SMILES	FOLD INHIBITION RELATIVE TO SOLVENT CONTROL, GCSF [1] [fold]	FOLD INHIBITION RELATIVE TO SOLVENT CONTROL, MMTV (MMTV (M10) promoter) [fold]	FOLD INHIBITION RELATIVE TO SOLVENT CONTROL, hGH [2] [fold]	FOLD INDUCTION RELATIVE TO SOLVENT CONTROL, MMTV (MMTV (M10) promoter) [fold]	FOLD INDUCTION RELATIVE TO SOLVENT CONTROL, GCSF [3] [fold]	FOLD INDUCTION RELATIVE TO SOLVENT CONTROL, hGH [2] [fold]	FOLD INHIBITION RELATIVE TO SOLVENT CONTROL, GCSF [3] [fold]
O=S(=O)(O)c1ccc2c(N=Nc3ccc(S(=O)(=O)O)c4ccccc34)c(O)c(S(=O)(=O)O)cc2c1 [compound 512]	0.81	0.68	5.26				
O=C(Nc1cccc(C2=NCCN2)c1)Nc1cccc(C2=NCCN2)c1 [compound 1598]				1.27	0.72	5.32	
O=S(=O)(O)c1ccc(-c2nnc(-c3ccnc(-c4nnc(-c5ccc(S(=O)(=O)O)cc5)c(-c5ccc(S(=O)(=O)O)cc5)n4)c3)nc2-c2ccc(S(=O)(=O)O)cc2)cc1 [compound 1604]		0.97	5.00				0.77
CC1(C)[C@H]2CC[C@]1(C)[C@H](O)C2 [compound 1635]	0.71	0.99	9.09				
C(=Cc1ccccn1)c1ccccn1 [compound 1640]		0.59	5.00				0.79
c1ccc(-c2nccnc2-c2ccccn2)nc1 [compound 1641]		0.60	5.55				0.83
O=S(=O)(O)c1ccc(-c2ccnc(-c3nnc(-c4ccc(S(=O)(=O)O)cc4)c(-c4ccc(S(=O)(=O)O)cc4)n3)c2)cc1 [compound 1648]		1.00	7.69				0.86
COC(=O)CP(=O)(OCC(F)(F)F)OCC(F)(F)F [compound 1651]		0.70	3.57				0.69
O=C(O)c1cc(C(F)(F)F)ccc1C(F)(F)F [compound 1655]		0.81	4.76				0.54
OCC1CC2C3CC(CO)C(C3)C2C1 (stereo not drawn) [compound 1678]				0.89	0.36	7.08	
N#Cc1cccc(Br)c1 [compound 1703]		0.90	10.00				0.76
N#Cc1ccc(Br)cc1 [compound 1704]		0.94	4.16				0.77
O=C(c1ccccc1)c1ccc(Br)cc1 [compound 1705]		0.62	14.28				0.54
Cc1cc(=O)oc2c(CN(CC(=O)O)CC(=O)O)c(O)ccc12 [compound 1712]		0.94	8.33				0.74
CC1(C)[C@H]2CC[C@]1(C)C(=O)C2 [compound 1720]	0.65	0.66	4.76				
CCOC(=O)c1c[nH]c(=S)[nH]c1=O [compound 1740]				0.87	0.74	17.77	
N[C@@H](CCCCNC(=O)OCc1ccccc1)C(=O)O [compound 1747]				0.86	0.78	6.16	
Cc1cc(=O)oc2cc(OCC(=O)O)ccc12 [compound 1764]		0.82	7.14				0.55
Cc1c(C(=O)O)c(O)cc2c1C(=O)c1c(O)c([C@@H]3O[C@H](CO)[C@@H](O)[C@H](O)[C@H]3O)c(O)c(O)c1C2=O [compound 1770]		0.57	10.00				0.54
NCCC(=O)N[C@@H](Cc1cnc[nH]1)C(=O)O [compound 1771]		0.72	10.00				0.71

SMILES	FOLD INHIBITION RELATIVE TO SOLVENT CONTROL, GCSF [1] [fold]	FOLD INHIBITION RELATIVE TO SOLVENT CONTROL, MMTV (MMTV (M10) promoter) [fold]	FOLD INHIBITION RELATIVE TO SOLVENT CONTROL, hGH [2] [fold]	FOLD INDUCTION RELATIVE TO SOLVENT CONTROL, MMTV (MMTV (M10) promoter) [fold]	FOLD INDUCTION RELATIVE TO SOLVENT CONTROL, GCSF [3] [fold]	FOLD INDUCTION RELATIVE TO SOLVENT CONTROL, hGH [2] [fold]	FOLD INHIBITION RELATIVE TO SOLVENT CONTROL, GCSF [3] [fold]
Cc1cc(C2(c3cc(C)c(O)c(CN(CC(=O)O)CC(=O)O)c3)OC(=O)c3ccccc32)cc(CN(CC(=O)O)CC(=O)O)c1O [compound 1773]		0.67	10.00				0.62
N=c1cc2oc3cc(N)ccc3nc-2c2ccccc12 [compound 1776]				1.36	3.50	0.15	
CN(C)C(=S)SCC#N [compound 1793]				1.21	9.50	0.52	
O=C(O)C1CCC1 [compound 1804]				0.49	1.05	9.41	
O=c1[nH]c(=O)c2nc3ccccc3nc2[nH]1 [compound 1890]		0.58	5.26				0.80
Nc1c2ccccc2nc2ccccc12 [compound 1904]				0.82	4.12	0.54	
Brc1cccc(-c2ccccc2)c1 [compound 1994]				0.63	3.29	0.34	
CC(C)(C)c1ccc(Br)cc1 [compound 2001]				1.12	3.11	0.74	
Cc1n[nH]c(C)c1Br [compound 2009]	3.70	0.64	0.57				
Nc1c(Br)cc([N+](=O)[O-])cc1[N+](=O)[O-] [compound 2010]		3.57	0.63				0.80
COc1c(F)cc(Br)cc1[N+](=O)[O-] [compound 2030]				0.87	5.53	0.67	
O=C(O)c1ccc(Br)o1 [compound 2035]		0.89	7.14				0.57
Nc1nc2c(nc(Br)n2[C@@H]2O[C@H](CO)[C@@H](O)[C@H]2O)c(=O)[nH]1 [compound 2036]	0.58	0.81	4.34				
CCCCCCCCCCCCCCCCBr [compound 2037]	0.51	0.50	4.00				
COc1cc2oc(=O)cc(CBr)c2cc1OC [compound 2064]				2.53	0.82	1.10	
CC(CCl)CBr (stereo not drawn) [compound 2096]				0.89	3.27	0.61	
ClCc1ccc(Cl)cc1 [compound 2129]				0.95	3.23	0.75	
O=C1CCCCC1Cl (stereo not drawn) [compound 2148]				2.82	0.45	0.92	
O=C(N[C@H](CO)[C@H](O)c1ccc([N+](=O)[O-])cc1)C(Cl)Cl [compound 2191]				7.32	0.37	0.35	
